System: Five broadleaf species (IPOHE, CHEAL, EPHHL, ABUTH and CASOB)
Experiment: Greenhouse study of glyphosate salt solutions in mixture with a second herbicide (Colby's equation)
Type: in vivo
Conditions: for % Actual Control: 420 gae/ha glyphosate and/or 140 gae/ha second herbicide, 3 days after application, averaged over the 5 species; for Herbicide interaction with 2,4-D DMA and triclopyr TEA (actual versus expected control): Colby's equation
Description: In a further greenhouse study, the efficacy of a glyphosate DMA salt solution in mixture with DMA 4 (456 g/l 2,4-D acid equivalent in the form of the DMA salt) and Garlon 3A (360 g/l triclopyr acid equivalent in the form of the triethylamine [TEA] salt) respectively was compared with the efficacy of a glyphosate K salt solution in the same mixtures. The glyphosate salt solutions were prepared by diluting the glyphosate DMA salt concentrate and glyphosate K salt concentrate with the required amount of water to prepare solutions containing 480 g/l glyphosate acid equivalent each. Five broadleaf species (IPOHE, CHEAL, EPHHL, ABUTH and CASOB) were sprayed with the individual formulations as well as the mixtures listed in Table 6. The herbicide interactions were analyzed using Colby's equation. This equation for the expected mixture response is: Y1+2=Y1+Y2−(Y1Y2)100 where Y1+2 is the expected mixture response and y1 and y2 are the percent control values of the individual herbicides.

## O=C(O)CNCP(=O)([O-])O.[K+] [glyphosate K salt]
  % Actual Control: 35.7%
  Herbicide interaction with 2,4-D DMA and triclopyr TEA (actual versus expected control): antagonistic

## CNC.O=C(O)COc1ccc(Cl)cc1Cl [2,4-D DMA salt]
  % Actual Control: 47.0%

## CCN(CC)CC.O=C(O)COc1nc(Cl)c(Cl)cc1Cl [triclopyr TEA salt]
  % Actual Control: 55.0%

## CNC.O=C(O)CNCP(=O)(O)O [glyphosate DMA salt]
  % Actual Control: 35.7%
  Herbicide interaction with 2,4-D DMA and triclopyr TEA (actual versus expected control): no antagonism
